Our source for the pKi and Intrinsic activity values is ChEMBL document CHEMBL3879907, “8-azabicyclo[3.2.1]octane compounds as mu opioid receptor antagonists” (2014).

By pKi is commonly meant the Ki on a negative log10 scale, so that one unit is a factor of ten. Low values mean a large Ki, high ones a small Ki.

The structures appear in SMILES notation.

For assay [1], the target named is Kappa-type opioid receptor (Cavia porcellus, UniProt P41144). The experiment in a line: Displacement of [3H]-diprenorphine from guinea pig kappa opioid receptor expressed in CHOK1 cell membranes. Particulars: cho-k1.
For assay [2], the target named is Mu-type opioid receptor (Homo sapiens) (UniProt P35372). Description: Intrinsic activity at human mu opioid receptor expressed in CHOK1 cell membranes at 0.00001 to 20 uM after 30 mins by GTP-Eu nucleotide exchange assay relative to DAMGO. As to conditions: CHO-K1. The assay is classed as functional.
Assay [3] deals with Delta-type opioid receptor (Homo sapiens, UniProt P41143). Description: Displacement of [3H]-diprenorphine from human delta opioid receptor expressed in cell membranes. (Loss of bound radioactivity is the signal in a displacement assay; it reports binding, not function.)
Chain of Delta-type opioid receptor (P41143 whole entry): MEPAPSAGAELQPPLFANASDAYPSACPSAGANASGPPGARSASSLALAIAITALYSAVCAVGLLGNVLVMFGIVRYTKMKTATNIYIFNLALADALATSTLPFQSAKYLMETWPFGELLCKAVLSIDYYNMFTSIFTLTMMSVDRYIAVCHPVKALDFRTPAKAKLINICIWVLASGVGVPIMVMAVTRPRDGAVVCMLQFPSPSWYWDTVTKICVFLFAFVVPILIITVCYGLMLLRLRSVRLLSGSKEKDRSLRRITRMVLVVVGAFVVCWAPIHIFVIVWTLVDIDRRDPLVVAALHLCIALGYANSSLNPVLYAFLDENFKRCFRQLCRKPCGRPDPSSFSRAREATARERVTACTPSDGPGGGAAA

Chain of Mu-type opioid receptor (Homo sapiens) (P35372 whole entry): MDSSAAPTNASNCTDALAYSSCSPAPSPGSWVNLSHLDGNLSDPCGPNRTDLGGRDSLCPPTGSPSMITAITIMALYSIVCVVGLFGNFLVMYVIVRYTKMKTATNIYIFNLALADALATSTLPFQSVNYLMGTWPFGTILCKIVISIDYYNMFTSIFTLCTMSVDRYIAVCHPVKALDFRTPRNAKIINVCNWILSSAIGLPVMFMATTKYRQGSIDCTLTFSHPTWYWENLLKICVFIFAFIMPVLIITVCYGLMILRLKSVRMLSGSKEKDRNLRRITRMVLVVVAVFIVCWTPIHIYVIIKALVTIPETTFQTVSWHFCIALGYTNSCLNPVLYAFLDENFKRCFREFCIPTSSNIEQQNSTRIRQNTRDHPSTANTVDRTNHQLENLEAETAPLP
Chain of Kappa-type opioid receptor (P41144 whole entry): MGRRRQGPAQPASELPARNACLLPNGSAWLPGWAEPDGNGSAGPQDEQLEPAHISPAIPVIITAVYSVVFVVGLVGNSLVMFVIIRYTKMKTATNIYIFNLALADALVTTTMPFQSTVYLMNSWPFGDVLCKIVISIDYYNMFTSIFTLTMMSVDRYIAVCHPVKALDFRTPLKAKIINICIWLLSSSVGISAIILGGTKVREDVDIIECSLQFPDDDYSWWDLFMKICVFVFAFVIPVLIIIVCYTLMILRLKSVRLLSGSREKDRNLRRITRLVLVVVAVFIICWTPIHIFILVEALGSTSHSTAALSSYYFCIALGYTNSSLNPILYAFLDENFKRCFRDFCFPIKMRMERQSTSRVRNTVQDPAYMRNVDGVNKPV

With `O=C(O)CCC(=O)N(CCN1[C@@H]2CC[C@H]1C[C@@H](c1cccc(O)c1)C2)Cc1ccccc1`, the pKi in assay [1] and in assay [3] was 7 to 10.5 each time. The same molecule registered an Intrinsic activity in assay [2] of less than 40%.
Regarding `CC(CO)(CO)C(=O)N(CCN1[C@@H]2CC[C@H]1C[C@@H](c1cccc(C(N)=O)c1)C2)CC1CCCCC1`, the pKi in assay [1] and in assay [3] was 7 to 10.5 each time. Further, the Intrinsic activity in assay [2] is less than 40%.
Consider `CC(=O)N(Cc1ccccc1)[C@H](C)CN1[C@@H]2CC[C@H]1C[C@@H](c1cccc(O)c1)C2`, for which the pKi in assay [1] and in assay [3] was 7 to 10.5 in each case. This molecule also returned an Intrinsic activity in assay [2] of less than 40%.
For the molecule `CC(CO)(CO)C(=O)N(CCN1[C@@H]2CC[C@H]1C[C@@H](c1cccc(C(N)=O)c1)C2)CC1CCC1.O=C(O)C(F)(F)F`, the pKi in assay [1] and in assay [3] was 7 to 10.5 throughout. The same molecule registered an Intrinsic activity in assay [2] of less than 40%.
`O=C(O)CS(=O)(=O)CC(=O)N(CCN1[C@@H]2CC[C@H]1C[C@@H](c1cccc(O)c1)C2)CC1CCCCC1`: the pKi in assay [1] and in assay [3] was 7 to 10.5 in each case. The Intrinsic activity in assay [2] was less than 40%.
With `O=C(C1CCCC1)N(CCN1[C@@H]2CC[C@H]1C[C@@H](c1cccc(O)c1)C2)Cc1ccccc1` (single isomer, unassigned), the pKi in assay [1] and in assay [3] was 7 to 10.5 throughout. The molecule further showed an Intrinsic activity in assay [2] of less than 40%.
On to `O=C(O)CC1(CC(=O)N(CCN2[C@@H]3CC[C@H]2C[C@@H](c2cccc(O)c2)C3)CC2CCCCC2)CCCC1`, for which the pKi in assay [1] and in assay [3] was 7 to 10.5 in each case. Besides, the Intrinsic activity in assay [2] was less than 40%.
Regarding `NC(=O)c1cccc([C@H]2C[C@H]3CC[C@@H](C2)N3CCN(Cc2ccccc2)C(=O)C2(O)CC2)c1.O=C(O)C(F)(F)F`, the pKi in assay [1] and in assay [3] was 7 to 10.5 throughout. For the same molecule, the Intrinsic activity in assay [2] was less than 40%.
On to `O=C(O)CC(=O)N(CCN1[C@@H]2CC[C@H]1C[C@@H](c1cccc(O)c1)C2)CC1CCCCC1`, for which the pKi in assay [1] and in assay [3] was 7 to 10.5 each time. In assay [2], the Intrinsic activity was less than 40%.
Turning to `CC(C)NC(=O)N(CCN1[C@@H]2CC[C@H]1C[C@@H](c1cccc(C(N)=O)c1)C2)CC1CCCCC1`, the pKi in assay [1] and in assay [3] was 7 to 10.5 each time. The same molecule gave an Intrinsic activity in assay [2] of less than 40%.
`NC(=O)c1cccc([C@H]2C[C@H]3CC[C@@H](C2)N3CCN(CC2CCCCC2)C(=O)NCc2ccc(F)cc2)c1`: the pKi in assay [1] and in assay [3] was 7 to 10.5 throughout. In assay [2], this molecule gave an Intrinsic activity of less than 40%.
For the molecule `O=C(CO)N(CCN1[C@@H]2CC[C@H]1C[C@@H](c1cccc(O)c1)C2)Cc1ccc(C(F)(F)F)cc1`, the pKi in assay [1] and in assay [3] was 7 to 10.5 in each case. The molecule further gave an Intrinsic activity in assay [2] of less than 40%.
Regarding `CS(=O)(=O)CC(=O)N(CCN1[C@@H]2CC[C@H]1C[C@@H](c1cccc(C(N)=O)c1)C2)Cc1ccc(C(F)(F)F)cc1.O=C(O)C(F)(F)F`, the pKi in assay [1] and in assay [3] was 7 to 10.5 in each case. Besides, in assay [2], the Intrinsic activity was less than 40%.
In the case of `NC(=O)c1cccc([C@H]2C[C@H]3CC[C@@H](C2)N3CCN(CC2CCC2)C(=O)[C@@H](O)CO)c1.O=C(O)C(F)(F)F`, the pKi in assay [1] and in assay [3] was 7 to 10.5 throughout. For the same molecule, the Intrinsic activity in assay [2] was less than 40%.
In the case of `NC(=O)c1cccc([C@H]2C[C@H]3CC[C@@H](C2)N3CCN(CC2CCC2)C(=O)[C@H](O)CO)c1.O=C(O)C(F)(F)F`, the pKi in assay [1] and in assay [3] was 7 to 10.5 throughout. This molecule had an Intrinsic activity in assay [2] of less than 40%.
With `CS(=O)(=O)CC(=O)N(CCN1[C@@H]2CC[C@H]1C[C@@H](c1cccc(C(N)=O)c1)C2)Cc1ccccc1.O=C(O)C(F)(F)F`, the pKi in assay [1] and in assay [3] was 7 to 10.5 each time. This molecule also returned an Intrinsic activity in assay [2] of less than 40%.
Turning to `CN(C)CC[C@H](O)C(=O)N(CCN1[C@@H]2CC[C@H]1C[C@@H](c1cccc(C(N)=O)c1)C2)CC1CCCCC1`, the pKi in assay [1] and in assay [3] was 7 to 10.5 throughout. In addition, the Intrinsic activity in assay [2] was less than 40%.
`CS(=O)(=O)CC(=O)N(CCN1[C@@H]2CC[C@H]1C[C@@H](c1cccc(C(N)=O)c1)C2)Cc1cccc(F)c1.O=C(O)C(F)(F)F`: the pKi in assay [1] and in assay [3] was 7 to 10.5 in each case. This molecule also showed an Intrinsic activity in assay [2] of less than 40%.
For the molecule `NC(=O)c1cccc([C@H]2C[C@H]3CC[C@@H](C2)N3CCN(CC2CCCC2)C(=O)[C@H]2CC[C@H](O)CC2)c1.O=C(O)C(F)(F)F`, the pKi in assay [1] and in assay [3] was 7 to 10.5 in each case. Moreover, the Intrinsic activity in assay [2] is less than 40%.
As to `CC(C)(CO)C(=O)N(CCN1[C@@H]2CC[C@H]1C[C@@H](c1cccc(C(N)=O)c1)C2)CC1CCCCC1`, the pKi in assay [1] and in assay [3] was 7 to 10.5 throughout. In assay [2], this molecule displayed an Intrinsic activity of less than 40%.
Regarding `O=C([C@@H](O)c1ccccc1)N(CCN1[C@@H]2CC[C@H]1C[C@@H](c1cccc(O)c1)C2)CC1CCCCC1`, the pKi in assay [1] and in assay [3] was 7 to 10.5 throughout. Also, the Intrinsic activity in assay [2] was less than 40%.
In the case of `COCC(=O)N(CCN1[C@@H]2CC[C@H]1C[C@@H](c1cccc(C(N)=O)c1)C2)Cc1ccccc1.O=C(O)C(F)(F)F`, the pKi in assay [1] and in assay [3] was 7 to 10.5 throughout. Further, in assay [2], the Intrinsic activity was less than 40%.
Consider `CCCCCNC(=O)N(CCN1[C@@H]2CC[C@H]1C[C@@H](c1cccc(O)c1)C2)CC1CCCCC1`, for which the pKi in assay [1] and in assay [3] was 7 to 10.5 throughout. Besides, the Intrinsic activity in assay [2] is less than 40%.
Consider `C[C@H](CN1[C@@H]2CC[C@H]1C[C@@H](c1cccc(O)c1)C2)N(Cc1ccccc1)C(=O)CC1CCCC1`, for which the pKi in assay [1] and in assay [3] was 7 to 10.5 in each case. The molecule also returned an Intrinsic activity in assay [2] of less than 40%.
As to `O=C([C@H](O)C1CCCCC1)N(CCN1[C@@H]2CC[C@H]1C[C@@H](c1cccc(O)c1)C2)CC1CCCCC1`, the pKi in assay [1] and in assay [3] was 7 to 10.5 each time. In addition, the Intrinsic activity in assay [2] is less than 40%.
Consider `CC(C)(CO)C(=O)N(CCN1[C@@H]2CC[C@H]1C[C@@H](c1cccc(C(N)=O)c1)C2)CC1CCCC1.O=C(O)C(F)(F)F`, for which the pKi in assay [1] and in assay [3] was 7 to 10.5 throughout. The same molecule had an Intrinsic activity in assay [2] of less than 40%.
Regarding `CS(=O)(=O)Nc1cccc([C@H]2C[C@H]3CC[C@@H](C2)N3CCN(CC2CCCCC2)C(=O)CO)c1`, the pKi in assay [1] and in assay [3] was 7 to 10.5 each time. The molecule further registered an Intrinsic activity in assay [2] of less than 40%.
On to `CC(=O)N(CCCN1[C@@H]2CC[C@H]1C[C@@H](c1cccc(C(N)=O)c1)C2)CC1CCCCC1`, for which the pKi in assay [1] and in assay [3] was 7 to 10.5 each time. For the same molecule, the Intrinsic activity in assay [2] is less than 40%.
`O=C(NCc1ccccc1)N(CCN1[C@@H]2CC[C@H]1C[C@@H](c1cccc(O)c1)C2)CC1CCCCC1`: the pKi in assay [1] and in assay [3] was 7 to 10.5 throughout. For the same molecule, the Intrinsic activity in assay [2] is less than 40%.
Take `NC(=O)c1cccc([C@H]2C[C@H]3CC[C@@H](C2)N3CCCN(Cc2ccccc2)C(=O)[C@@H](O)CO)c1.O=C(O)C(F)(F)F`: the pKi in assay [1] and in assay [3] was 7 to 10.5 in each case. The molecule further displayed an Intrinsic activity in assay [2] of less than 40%.
Regarding `CCC(CC)C(=O)N(CCN1[C@@H]2CC[C@H]1C[C@@H](c1cccc(O)c1)C2)Cc1ccccc1`, the pKi in assay [1] and in assay [3] was 7 to 10.5 in each case. The molecule further yielded an Intrinsic activity in assay [2] of less than 40%.
Consider `COc1ccc(NC(=O)N(CCN2[C@@H]3CC[C@H]2C[C@@H](c2cccc(O)c2)C3)CC2CCCCC2)cc1OC`, for which the pKi in assay [1] and in assay [3] was 7 to 10.5 throughout. In addition, the Intrinsic activity in assay [2] was less than 40%.
Take `CS(=O)(=O)CC(=O)N(CCCN1[C@@H]2CC[C@H]1C[C@@H](c1cccc(C(N)=O)c1)C2)CC1CCCCC1`: the pKi in assay [1] and in assay [3] was 7 to 10.5 each time. The same molecule returned an Intrinsic activity in assay [2] of less than 40%.
In the case of `O=C(O)CCC(=O)N(CCN1[C@@H]2CC[C@H]1C[C@@H](c1cccc(O)c1)C2)CC1CCCCC1` (single isomer, unassigned), the pKi in assay [1] and in assay [3] was 7 to 10.5 throughout. This molecule showed an Intrinsic activity in assay [2] of less than 40%.
With `CC(C)C[C@H](O)C(=O)N(CCN1[C@@H]2CC[C@H]1C[C@@H](c1cccc(C(N)=O)c1)C2)CC1CCCCC1`, the pKi in assay [1] and in assay [3] was 7 to 10.5 each time. The molecule further showed an Intrinsic activity in assay [2] of less than 40%.
Regarding `CS(=O)(=O)CC(=O)N(CCN1[C@@H]2CC[C@H]1C[C@@H](c1cccc(O)c1)C2)Cc1c(F)cccc1F`, the pKi in assay [1] and in assay [3] was 7 to 10.5 throughout. For the same molecule, the Intrinsic activity in assay [2] was less than 40%.
For the molecule `CN(C)[C@@H](Cc1ccccc1)C(=O)N(CCN1[C@@H]2CC[C@H]1C[C@@H](c1cccc(O)c1)C2)CC1CCCCC1`, the pKi in assay [1] and in assay [3] was 7 to 10.5 throughout. In assay [2], this molecule yielded an Intrinsic activity of less than 40%.
For the molecule `CS(=O)(=O)CC(=O)N(CCN1[C@@H]2CC[C@H]1C[C@@H](c1cccc(C(N)=O)c1)C2)Cc1c(F)cccc1F`, the pKi in assay [1] and in assay [3] was 7 to 10.5 in each case. This molecule yielded an Intrinsic activity in assay [2] of less than 40%.
Regarding `COCC(=O)N(CCN1[C@@H]2CC[C@H]1C[C@@H](c1cccc(C(N)=O)c1)C2)CC1CCCCC1.O=C(O)C(F)(F)F`, the pKi in assay [1] and in assay [3] was 7 to 10.5 in each case. The molecule also returned an Intrinsic activity in assay [2] of less than 40%.
As for `C[C@H](CN1[C@@H]2CC[C@H]1C[C@@H](c1cccc(O)c1)C2)N(Cc1ccccc1)C(=O)CCC1CCCC1`, the pKi in assay [1] and in assay [3] was 7 to 10.5 in each case. Further, the Intrinsic activity in assay [2] is less than 40%.
In the case of `O=C(CO)N(CCN1[C@@H]2CC[C@H]1C[C@@H](c1cccc(O)c1)C2)Cc1c(F)cccc1F`, the pKi in assay [1] and in assay [3] was 7 to 10.5 throughout. Further, the Intrinsic activity in assay [2] was less than 40%.
`CC(C)CC(=O)N(Cc1ccccc1)[C@H](C)CN1[C@@H]2CC[C@H]1C[C@@H](c1cccc(O)c1)C2`: the pKi in assay [1] and in assay [3] was 7 to 10.5 throughout. Also, the Intrinsic activity in assay [2] was less than 40%.
